Reference: patent publication US12168005B2, “Methods for treating wild type isocitrate dehydrogenase 1 cancers” (University Hospitals Cleveland Medical Center, priority 2019, dated 2024)

Key:
[1] = system: wild type IDH1 pancreatic cancer (MiaPaCa2 cell line) xenografts; experiment: pancreatic xenograft study (MiaPaCa2); type: in vivo, mice; conditions: oral 150 mg/kg
Text: FIG. 7. […] No toxicity to mice occurred at these oral doses.
No toxicity was observed.

[2] = system: pancreatic cancer cell line (Panc1) cells; experiment: reactive oxygen species (ROS) levels in Panc1 cells; type: cell-based; conditions: 1 μM, zero mM magnesium ion, 2.5 mM glucose, Panc1, 48 hours
Description: ROS levels were measured by measuring 2′,7′-dichlorodihydrofluorescein diacetate (DCFDA) or MitoSOX as previously described (Zarei et al. (2017) Cancer Res; 77(16) 4460-4471).
Importantly, these low magnesium ion and low glucose conditions were consistent with the pancreatic cancer tumor microenvironment (FIG. 6).

wild type IDH1 = molecular target: T1, wild type IDH1 (Homo sapiens, UniProt O75874); experiment: wild type IDH1 enzyme activity at varying Mg2+ concentrations (FIG. 19); type: cell-based; conditions: 1 μM, Mg2+ below 0.4 mM
T1 construct: endogenous in cells; host or cells: MiaPaCa2
T1 sequence (O75874 2-414): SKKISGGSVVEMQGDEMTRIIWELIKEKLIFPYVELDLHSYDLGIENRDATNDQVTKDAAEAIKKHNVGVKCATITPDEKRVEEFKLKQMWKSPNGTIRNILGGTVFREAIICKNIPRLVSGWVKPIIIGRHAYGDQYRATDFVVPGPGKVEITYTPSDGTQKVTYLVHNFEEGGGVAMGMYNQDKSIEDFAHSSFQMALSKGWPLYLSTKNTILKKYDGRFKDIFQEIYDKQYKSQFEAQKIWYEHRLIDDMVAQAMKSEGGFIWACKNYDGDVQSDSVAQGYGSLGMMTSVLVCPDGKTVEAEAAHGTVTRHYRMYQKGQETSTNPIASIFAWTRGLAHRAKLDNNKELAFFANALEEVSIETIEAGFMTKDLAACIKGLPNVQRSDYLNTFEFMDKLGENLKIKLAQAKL
Text: In one embodiment, the cancer treated in accordance with any of the invention's methods contains cancer cells having a lower Magnesium^2+ (Mg^2+) concentration compared to Mg^2+ concentration in serum, such as serum from the subject and/or serum from a control subject lacking cancer.

[3] = 500 mg daily in humans; cited from earlier work

## N#Cc1ccnc(N2C(=O)CC[C@H]2C(=O)N(c2cncc(F)c2)[C@H](C(=O)NC2CC(F)(F)C2)c2ccccc2Cl)c1 [AG-120, Ivosidenib]
[1]
  toxicity to mice: No toxicity
[2]
  increase in ROS: 3 fold
Wild type IDH1
  reduction of wild type IDH1 enzyme activity: 50%
[3]
  plasma concentration: 130 µM
